The source of these data is patent US8106186B2, “Transition metal phosphine complex, method for producing same, and anticancer agent containing transition metal phospine complex” (Nippon Chemical Industrial Co., Ltd., priority 2005, dated 2012).

As usually defined, the IC50 is the concentration that gives 50% inhibition.

Data set [1] relates to female Sprauge-Dawley SPF rats (CrJ:CD (SD)). The data set can be described thus: Toxicity test by single oral administration to rats. Type of data set: in vivo, rat. Particulars: for LD50: rats, single oral dose in corn oil, observed 14 days, from survival rate. An excerpt:
After female Sprauge-Dawley SPF rats (CrJ:CD (SD)) were quarantined and acclimated for about a week, healthy 8-week-old rats were selected in groups of five rats.

In data set [2] the test system is HCS-4 (cells derived from human tongue cancer). Description: Evaluation of anticancer property 2: MTT assay, tongue cancer cells. The format is cell-based. Particulars: HCS-4, RPMI 1640+10% FBS, assayed as in Evaluation 1; read-out: IC50, Cell derived from human tongue cancer. Here is the method:
(§1) The number of viable cells was determined by a modified Mosmann method (T. Mosmann, J. Immunnol. Method (1983)65, 55-63). That is, a solution of a tetrazolium salt (3,[4,5-dimethylthiazole-2-yl]-2,5-diphenyltetrazolium bromide, MTT) was added thereto. The wells were cultured for another 3 hours under the same conditions. Formazan crystals formed by the enzyme activity of mitochondria in the cells were dissolved in 0.04 mol/HCl/isopropyl alcohol. The absorbance of each well was measured at 595 nm with a microplate reader (Bio-Rad 550). To remove the background, the absorbance of each well was measured at 630 nm. The absorbance at 630 nm was subtracted from the actual measured value. This is determined to be the number of viable cells. […] For the values shown in Table 3, each of Compounds 1 to 3 was assayed three times, and the average value was shown.
(§2) Compounds (2) and (3) obtained in Examples 2 and 3 were assayed as in Evaluation 1 with HCS-4 (cells derived from human tongue cancer, medium: RPMI 1640+10% FBS), COLO205 (cells derived from human colon, medium: RPMI-1640+10% FBS), and SH-10-TC (cells derived from human gastric cancer, medium: RPMI-1640+10% FBS).
In general terms: Formazan colour is commonly taken as a measure of viable cells.

Data set [3] deals with COLO205 (cells derived from human colon). Description: Evaluation of anticancer property 2: MTT assay, colon cells. The format is cell-based. Particulars: COLO205, RPMI-1640+10% FBS, assayed as in Evaluation 1; read-out: IC50, Cell derived from human colon. Here is the method:
as §1, §2

Data set [4] concerns Human acute myelocytic leukemia cells HL-60. Description: Evaluation of anticancer property 1: MTT viable cell assay (modified Mosmann method). Type of data set: cell-based. Particulars: HL-60 cells, 24 hours culture, average of assays. Here is the method:
Human acute myelocytic leukemia cells cancer cells HL-60 was used as cancer cells. The cells were cultured in Rosewell Park Memorial Institute medium (RPMI 1640) supplemented with 10% fetal bovine serum, 1% antibiotic, and an antifungal agent in an atmosphere of 5% carbon dioxide in a moist incubator at 37° C.
Cells were washed with PBS. After the number of cells was determined, a suspension (1×10^6 cells/mL) was prepared with the same medium. The suspension was seeded in a sterile 96-well microplate at a density of 50,000 cells/well.
The wells were further cultured in the incubator for 24 hours.
The number of viable cells was determined by a modified Mosmann method (T. Mosmann, J. Immunnol. Method (1983)65, 55-63). […] The wells were cultured for another 3 hours under the same conditions. Formazan crystals formed by the enzyme activity of mitochondria in the cells were dissolved in 0.04 mol/HCl/isopropyl alcohol. The absorbance of each well was measured at 595 nm with a microplate reader (Bio-Rad 550). To remove the background, the absorbance of each well was measured at 630 nm. The absorbance at 630 nm was subtracted from the actual measured value. This is determined to be the number of viable cells.

Data set [5] deals with SH-10-TC (cells derived from human gastric cancer). Description: Evaluation of anticancer property 2: MTT assay, gastric cancer cells. Type of data set: cell-based. To be noted: RPMI-1640+10% FBS, assayed as in Evaluation 1, read-out: IC50, Cell derived from human gastrict cancer. How it is done: as §1, §2

As to “bis(meso-1,2-bis(tert-butyl(2-pyridyl)phosphino)ethane)gold(I) chloride [Compound (2)]”, in data set [1], the LD50 is reported as 300 mg/kg or more. Further, the half-inhibitory concentration (IC50) in data set [2] was 1400 nM; in data set [3], 2200 nM; in data set [4], 5130 nM; in data set [5] it was 1200 nM.
Regarding “bis((R,R)-1,2-bis(tert-butyl(2-pyridyl)phosphino)ethane)gold(I) chloride [Compound (3)]”, the LD50 in data set [1] is reported as 300 mg/kg or more. In addition, the 50% inhibitory concentration (IC50) came out at 3500 nM in data set [2], 1500 nM in data set [3], 3580 nM in data set [4] and 900 nM in data set [5].
For “bis(rac-1,2-bis(tert-butyl(2-pyridyl)phosphino)ethane)gold(I) chloride [Compound (1)]”, in data set [1], the LD50 is listed as 300 mg/kg or more. Besides, in data set [4], the IC50 worked out at 4510 nM.
As to “bis[1,2-bis(phenyl(2-pyridyl)phosphino)ethane]gold(I) chloride [Compound (5), reference compound]”, the “Death of rats, 100 mg/kg group” value in data set [1] (single oral dose 100 mg/kg, five rats, death at 5 days after administration) is listed as “one rat died”. Also, the “Death of rats, 300 mg/kg group” value in data set [1] (single oral dose 300 mg/kg, five rats, deaths by day 2) is listed as “three rats died”. In addition, in data set [1] (single oral dose 20 and 50 mg/kg, five rats per group), the “Death of rats, 20 and 50 mg/kg groups” value is reported as “no death was observed”. Also, in data set [4], half-maximal inhibition (IC50) required 3560 nM.
